One assay has as its target T1, FLAG-NR0B1 (WT) (Homo sapiens, UniProt P51843).
T1 construct: expressed in transfected cells; host or cells: HEK-293T, transient, pRK5-based vector
Kind of assay: Gel-based BPK-29yne labeling of NR0B1 and competition in HEK293T cells. The class given is cell-based. To be noted: 30 min, in-gel fluorescence. The protocol:
(§1) 4×10^6 HEK-293T cells were seeded in poly-L-lysine coated 10 cm plates and transfected the next day with 5 μg of FLAG-NR0B1, FLAG-NR0B1-C274V, or FLAG-METAP2 cDNA in a pRK5-based expression vector. 48 h after transfection, cells were treated with indicated concentrations of BPK-29 or control compound BPK-27 for 3 h at 37° C. in DMEM containing 10% FBS and supplements as described in Cell Culture. BPK-29yne (5 μM) was then added and incubated for an additional 30 min at 37° C. FLAG immunoprecipitates were prepared as described above and following washes, the FLAG resin was resuspended in PBS (100 μL). To each sample, 12 μL of a freshly prepared “click” reagent mixture was added to conjugate the fluorophore to probe-labeled proteins. […] Samples were boiled for 5 min and proteins were resolved by SDS-PAGE (10% acrylamide), and visualized by in-gel fluorescence on a Bio-Rad ChemiDoc MP flatbed fluorescence scanner. Samples were also analyzed by immunoblotting. Recombinantly expressed FLAG-tagged protein levels were determined with the FLAG antibody (Sigma). Gel fluorescence and imaging was processed using Image Lab (v 5.2.1) software.

Another assay has as its target T2, FLAG-NR0B1-C274V (Homo sapiens, UniProt P51843, C274V).
T2 construct: expressed in transfected cells; host or cells: HEK-293T, transient, pRK5-based vector
In words: Gel-based BPK-29yne labeling of the NR0B1-C274V mutant in HEK293T cells. The class given is cell-based. As to conditions: 30 min, in-gel fluorescence. The protocol:
as §1

T1 sequence (P51843 whole entry): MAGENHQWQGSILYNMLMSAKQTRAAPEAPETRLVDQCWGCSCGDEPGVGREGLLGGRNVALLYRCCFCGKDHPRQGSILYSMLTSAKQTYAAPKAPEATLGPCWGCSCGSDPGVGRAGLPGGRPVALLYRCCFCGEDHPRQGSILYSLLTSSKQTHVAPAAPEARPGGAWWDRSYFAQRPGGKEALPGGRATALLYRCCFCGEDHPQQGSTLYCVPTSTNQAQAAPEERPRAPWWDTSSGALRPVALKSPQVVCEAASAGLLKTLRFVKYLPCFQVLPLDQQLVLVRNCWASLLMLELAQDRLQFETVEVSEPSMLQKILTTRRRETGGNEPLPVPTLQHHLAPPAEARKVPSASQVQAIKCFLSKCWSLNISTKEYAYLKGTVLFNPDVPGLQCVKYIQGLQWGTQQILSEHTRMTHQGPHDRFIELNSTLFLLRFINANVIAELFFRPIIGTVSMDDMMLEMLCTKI
T2 sequence (P51843 whole entry C274V): as the sequence (P51843 whole entry) above, with C274V counted along it

As for `C#Cc1cccc(CN(C(=O)CCl)C2CCCN(C(=O)c3ccc(N4CCOCC4)cc3)CC2)c1` (centres unmarked) [BPK-29yne, 2-chloro-N-(3-ethynylbenzyl)-N-(1-(4-morpholinobenzoyl)azepan-4-yl)acetamide], the “BPK-29yne labeling of WT-NR0B1” value on FLAG-NR0B1 (WT) is “labeled WT-NR0B1”. The “BPK-29yne labeling of NR0B1 C274V mutant” value at FLAG-NR0B1-C274V is “but not a C274V mutant”.

The values above are taken from patent publication US20200278355A1, “CONJUGATED PROTEINS AND USES THEREOF” (THE SCRIPPS RESEARCH INSTITUTE, priority 2017, published 2020).
